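How tested: cells in 96-well plates exposed to compound for 48 hours at five concentrations. GI50 = concentration required for 50% inhibition of growth.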 The source made the active and inactive calls. Cut-off read from the data, not from the text of the source: active = GI50 up to about 1.1 µM and inactive = higher.
How the values were obtained:
Assay in all cases: inhibition of tumour cell growth, NCI panel, 48 h
CCRF-CEM = tested on: CCRF-CEM
SF-295 = tested on: SF-295
CAKI-1 = tested on: CAKI-1
HL-60 = tested on: HL-60
HT-29 = tested on: HT-29
OVCAR-4 = tested on: OVCAR-4
MCF7 = tested on: MCF7
SNB-75 = tested on: SNB-75
T47D = tested on: T47D
EKVX = tested on: EKVX
HCT-116 = tested on: HCT-116
TK-10 = tested on: TK-10
UO-31 = tested on: UO-31
BT-549 = tested on: BT-549
COLO 205 = tested on: COLO 205
SN12C = tested on: SN12C
HCT-15 = tested on: HCT-15
786-0 = tested on: 786-0
Malme-3M = tested on: Malme-3M
MDA-N = tested on: MDA-N

Measured: GI50

C=C1C(=O)OC2C1C(=O)C/C(C)=C/CCC1(C)OC21 (stereo unspecified)
11.4 µM: HCT-15
inactive: CCRF-CEM 2.79 µM | SF-295 52.7 µM | CAKI-1 14.7 µM | HL-60 1.33 µM | HT-29 20.6 µM | OVCAR-4 18.7 µM | MCF7 8.63 µM | SNB-75 25.4 µM | T47D 11.2 µM | EKVX 25.2 µM | HCT-116 14.8 µM | TK-10 16.1 µM | UO-31 15.2 µM | BT-549 23.3 µM | COLO 205 5.45 µM | SN12C 22.1 µM | 786-0 14 µM

O=C1c2cccnc2S(=O)(=O)N1c1ccc(Br)cc1
active: HL-60 < 0.01 µM
inactive: CCRF-CEM 43 µM | SF-295 > 100 µM | Malme-3M 73.6 µM | CAKI-1 > 100 µM | HT-29 > 100 µM | OVCAR-4 > 100 µM | SNB-75 95.1 µM | T47D > 100 µM | EKVX > 100 µM | HCT-116 > 100 µM | TK-10 > 100 µM | UO-31 > 100 µM | BT-549 79.1 µM | COLO 205 > 100 µM | SN12C > 100 µM | MDA-N > 100 µM | 786-0 > 100 µM
> 100 µM: HCT-15

CC(C)CC1N=C(OCc2ccccc2)OC1=O (stereo unspecified)
> 100 µM: HCT-15
inactive: CCRF-CEM > 100 µM | SF-295 > 100 µM | Malme-3M > 100 µM | CAKI-1 > 100 µM | HT-29 > 100 µM | OVCAR-4 > 100 µM | MCF7 > 100 µM | SNB-75 > 100 µM | T47D > 100 µM | EKVX > 100 µM | HCT-116 > 100 µM | TK-10 > 100 µM | UO-31 > 100 µM | BT-549 > 100 µM | COLO 205 > 10 µM | SN12C > 100 µM | MDA-N > 100 µM | 786-0 > 100 µM

S=C(N1CCN(c2ccc(Cl)c(Cl)c2)CC1)N1CCN(c2ccc(Cl)c(Cl)c2)CC1
inactive: CCRF-CEM 3.42 µM | SF-295 9.25 µM | Malme-3M 14.2 µM | CAKI-1 7.4 µM | HT-29 9.42 µM | OVCAR-4 13.7 µM | MCF7 11.7 µM | T47D 7.94 µM | EKVX 3.38 µM | HCT-116 7.19 µM | TK-10 13.4 µM | UO-31 13.1 µM | BT-549 16.2 µM | COLO 205 10.6 µM | MDA-N 11.6 µM | 786-0 10.8 µM
15.4 µM: HCT-15

CN(C)CCn1c(=O)oc2cc(C(=O)CN3CCOCC3)ccc21
> 100 µM: HCT-15
inactive: CCRF-CEM > 100 µM | SF-295 > 100 µM | Malme-3M > 100 µM | CAKI-1 > 100 µM | HL-60 > 100 µM | HT-29 > 100 µM | MCF7 > 100 µM | SNB-75 > 100 µM | EKVX > 100 µM | HCT-116 > 100 µM | TK-10 > 100 µM | UO-31 88.1 µM | BT-549 > 100 µM | COLO 205 > 100 µM | SN12C > 100 µM | MDA-N > 100 µM | 786-0 > 100 µM

Cn1cc(C=C(C#N)C#N)c(=O)n(C)c1=O
inactive: SF-295 > 100 µM | CAKI-1 > 100 µM | HT-29 > 100 µM | OVCAR-4 > 100 µM | MCF7 > 100 µM | SNB-75 > 100 µM | T47D > 100 µM | EKVX > 100 µM | HCT-116 > 100 µM | TK-10 > 100 µM | UO-31 > 100 µM | BT-549 > 100 µM | COLO 205 > 100 µM | SN12C > 100 µM | MDA-N > 100 µM | 786-0 > 100 µM
> 100 µM: HCT-15

NC(Cc1n[nH]c2ccccc12)C(=O)O (stereo unspecified)
> 100 µM: HCT-15
inactive: CCRF-CEM > 100 µM | SF-295 > 100 µM | Malme-3M > 100 µM | CAKI-1 > 100 µM | HL-60 > 100 µM | HT-29 > 100 µM | OVCAR-4 > 100 µM | MCF7 > 100 µM | SNB-75 > 100 µM | T47D > 100 µM | EKVX > 100 µM | HCT-116 > 100 µM | TK-10 > 100 µM | UO-31 > 100 µM | BT-549 > 100 µM | COLO 205 > 100 µM | SN12C > 100 µM | 786-0 > 100 µM

O=C(N/N=C/c1ccccc1)c1c(-c2cccnc2)cnc2ccccc12
inactive: CCRF-CEM > 100 µM | SF-295 12 µM | Malme-3M > 100 µM | CAKI-1 > 100 µM | HL-60 42.9 µM | HT-29 42.1 µM | OVCAR-4 > 100 µM | MCF7 48.2 µM | SNB-75 34.8 µM | EKVX > 100 µM | HCT-116 52.5 µM | TK-10 > 100 µM | UO-31 > 100 µM | BT-549 79.4 µM | COLO 205 > 100 µM | SN12C > 100 µM | MDA-N 29.2 µM | 786-0 > 100 µM
48 µM: HCT-15

COC(OC)[C@@H]1OC[C@H](n2ccc(=O)[nH]c2=O)[C@H]1O
inactive: CCRF-CEM > 100 µM | SF-295 > 100 µM | CAKI-1 > 100 µM | HT-29 > 100 µM | OVCAR-4 > 100 µM | MCF7 > 100 µM | SNB-75 > 100 µM | T47D > 100 µM | EKVX > 100 µM | HCT-116 > 100 µM | TK-10 > 100 µM | UO-31 > 100 µM | BT-549 > 100 µM | COLO 205 > 100 µM | SN12C > 100 µM | MDA-N > 100 µM | 786-0 > 100 µM
> 100 µM: HCT-15

O=C1C=C/C(=N/c2cccc3c(/N=C4/C=CC(=O)O4)cccc23)O1
inactive: SF-295 > 100 µM | Malme-3M 22.2 µM | CAKI-1 18.9 µM | HT-29 41.8 µM | OVCAR-4 39.4 µM | MCF7 33.3 µM | SNB-75 > 100 µM | T47D 33.7 µM | EKVX 16.8 µM | HCT-116 24.8 µM | TK-10 17.7 µM | UO-31 > 100 µM | BT-549 86.3 µM | COLO 205 20.2 µM | SN12C 29.9 µM | MDA-N 27.3 µM | 786-0 19.4 µM
37.3 µM: HCT-15

CCCc1cn2c(/C=N/N=C(N)N)c(-c3c(OC)ccc(OC)c3[N+](=O)[O-])nc2s1
inactive: CCRF-CEM 2.84 µM | SF-295 14.1 µM | Malme-3M 10.3 µM | CAKI-1 5.57 µM | HL-60 7.46 µM | HT-29 4.06 µM | OVCAR-4 20.2 µM | MCF7 2.81 µM | SNB-75 16.3 µM | T47D 3.7 µM | EKVX 18 µM | HCT-116 6.18 µM | TK-10 16.8 µM | UO-31 20.4 µM | BT-549 10.9 µM | COLO 205 2.16 µM | SN12C 14.2 µM | 786-0 9.89 µM
18.2 µM: HCT-15

Cc1ccc2c(n1)NC(=O)C(Cc1ccccc1)(N=[N+]=[N-])C2=O (stereo unspecified)
> 100 µM: HCT-15
inactive: CCRF-CEM > 100 µM | SF-295 > 100 µM | Malme-3M > 100 µM | CAKI-1 > 100 µM | HT-29 > 100 µM | OVCAR-4 > 100 µM | MCF7 > 100 µM | T47D 67 µM | HCT-116 > 100 µM | TK-10 > 100 µM | UO-31 > 100 µM | BT-549 > 100 µM | COLO 205 > 100 µM | SN12C > 100 µM | MDA-N > 100 µM | 786-0 > 100 µM

N#Cc1c(-c2ccc([N+](=O)[O-])cc2)cc(-c2ccc(Nc3ccnc4cc(Cl)ccc34)cc2)[nH]c1=O
> 100 µM: HCT-15
inactive: SF-295 > 100 µM | Malme-3M > 100 µM | CAKI-1 > 100 µM | HL-60 > 100 µM | OVCAR-4 > 100 µM | MCF7 > 100 µM | SNB-75 > 100 µM | T47D > 100 µM | EKVX > 100 µM | HCT-116 > 100 µM | TK-10 98.9 µM | UO-31 > 100 µM | BT-549 > 100 µM | COLO 205 > 100 µM | 786-0 > 100 µM

CCSC12CC3c4cccc5c4C(CN5C(=O)c4ccccc4)CC3(O1)N(C)C2=O (stereo unspecified)
29.4 µM: HCT-15
inactive: CCRF-CEM 28.6 µM | SF-295 45.6 µM | Malme-3M 35.6 µM | CAKI-1 92 µM | HL-60 22.7 µM | HT-29 42.6 µM | OVCAR-4 36.9 µM | SNB-75 73.6 µM | T47D 17.7 µM | EKVX 24.2 µM | HCT-116 30.1 µM | TK-10 48.5 µM | UO-31 47.3 µM | BT-549 26.1 µM | COLO 205 26.1 µM | SN12C 17.2 µM | MDA-N 25.3 µM | 786-0 36.2 µM

CC(C)=C[C@@H]1C[C@H](C)c2c(O)cc(C)c3c2C1=C(C)C(=O)C3=O [ELISABATIN A]
inactive: CCRF-CEM 22.4 µM | SF-295 14.7 µM | Malme-3M 16 µM | CAKI-1 16.6 µM | HL-60 21.9 µM | HT-29 19.4 µM | OVCAR-4 10.9 µM | MCF7 22.8 µM | SNB-75 17.4 µM | EKVX 14.3 µM | HCT-116 15.2 µM | TK-10 22.3 µM | BT-549 13.7 µM | COLO 205 17.7 µM | SN12C 15 µM | MDA-N 16.3 µM | 786-0 15.9 µM
13.6 µM: HCT-15

From ChEMBL document CHEMBL1201862, “PubChem BioAssay data set” (2004)
